# Assays:
# [1] = test system: FU-OV-1 (Ovarian Carcinoma); experiment: Bliss excess, mean over the matrix (fraction); higher = more synergy
# How it was run: (§1)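 After 24 hours at 37°C and 5% CO2 in 1536-well plates, cells in DMEM/F12 or RPMI plus 10% FBS received two-drug dose matrices for 72 hours. Viability came from CellTiter-Glo 2.0 luminescence and was scaled as inhibition, anchored at 0 by vehicle wells and at 1 by blank wells. Combination Emax is taken as the second-highest inhibition in the matrix, and Bliss excess as the observed combination effect less EA + EB − EA·EB, with EA and EB the single-agent effects.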
# [2] = test system: TC-YIK (Other Solid Carcinomas); experiment: as above
# How it was run: as §1
# [3] = test system: DOK (Oral Cavity Carcinoma); experiment: combination Emax (second highest fraction inhibited in the dose matrix, 72 h); higher = more inhibition; extreme values may be limits of the assay
# How it was run: as §1
# [4] = test system: FU-OV-1 (Ovarian Carcinoma); experiment: as above
# How it was run: as §1
# [5] = test system: 647-V (Bladder Carcinoma); experiment: as above
# How it was run: as §1
# [6] = test system: MEG-01 (Chronic Myelogenous Leukemia); experiment: as above
# How it was run: as §1
# [7] = test system: MES-SA (Other Solid Carcinomas); experiment: as above
# How it was run: as §1
# [8] = test system: NOMO-1 (Acute Myeloid Leukemia); experiment: as above
# How it was run: as §1
# [9] = test system: RCC10RGB (Kidney Carcinoma); experiment: as above
# How it was run: as §1
# [10] = test system: SLVL (B-Cell Non-Hodgkin's Lymphoma); experiment: as above
# How it was run: as §1
# [11] = test system: SKN-3 (Head and Neck Carcinoma); experiment: as above
# How it was run: as §1
# [12] = test system: TC-YIK (Other Solid Carcinomas); experiment: as above
# How it was run: as §1
# [13] = test system: GDM-1 (Acute Myeloid Leukemia); experiment: as above
# How it was run: as §1
# [14] = test system: SK-LMS-1 (Other Solid Carcinomas); experiment: as above
# How it was run: as §1
# [15] = test system: JHH-6 (Hepatocellular Carcinoma); experiment: as above
# How it was run: as §1
# [16] = test system: SK-UT-1 (Other Solid Carcinomas); experiment: as above
# How it was run: as §1
# 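For Bliss excess, mean over the matrix in this document: after 72 h of two-drug dosing.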
Compound,Bliss excess [1],Bliss excess [2],combination Emax [3],combination Emax [4],combination Emax [5],combination Emax [6],combination Emax [7],combination Emax [8],combination Emax [9],combination Emax [10],combination Emax [11],combination Emax [12],combination Emax [13],combination Emax [14],combination Emax [15],combination Emax [16]
"CN(C)CCCOc1ccc(-c2ccc3ncc4c(c3c2)n(C2CCOCC2)c(=O)n4C)cn1 [AZD0156] + O=C(c1cc(Cc2n[nH]c(=O)c3ccccc23)ccc1F)N1CCN(C(=O)C2CC2)CC1 [Olaparib] (first compound max 3 µM, partner max 3 µM)",-0.0526,0.102,0.361,0.211,0.257,0.156,0.353,0.321,0.229,0.313,0.283,0.379,0.533,0.392,0.141,0.257
"C=CCn1c(=O)c2cnc(Nc3ccc(N4CCN(C)CC4)cc3)nc2n1-c1cccc(C(C)(C)O)n1 [AZD1775] + C1CN(CCC1(C(=O)N[C@@H](CCO)C2=CC=C(C=C2)Cl)N)C3=NC=NC4=C3C=CN4 [Capivasertib] (first compound max 3 µM, partner max 3 µM)",-0.0615,-0.0543,0.754,0.565,0.948,0.965,0.863,0.964,0.583,0.87,0.61,0.895,0.824,0.635,0.508,0.817
"COc1nnc2ccc(N3CCC(c4ccc(OCCN5CCN(C)C(=O)[C@H]5C)cc4)CC3)nn12 [AZD5153] + C=CCn1c(=O)c2cnc(Nc3ccc(N4CCN(C)CC4)cc3)nc2n1-c1cccc(C(C)(C)O)n1 [AZD1775] (first compound max 1 µM, partner max 1 µM)",0.0138,-0.0712,0.658,0.631,0.637,0.945,0.685,0.983,0.686,0.738,0.634,0.935,0.961,0.592,0.53,0.787
"COc1nnc2ccc(N3CCC(c4ccc(OCCN5CCN(C)C(=O)[C@H]5C)cc4)CC3)nn12 [AZD5153] + CC1(C)CCC(CN2CCN(c3ccc(C(=O)NS(=O)(=O)c4ccc(NCC5CCOCC5)c([N+](=O)[O-])c4)c(Oc4cnc5[nH]ccc5c4)c3)CC2)=C(c2ccc(Cl)cc2)C1 [Venetoclax] (first compound max 1 µM, 7x7, partner max 1 µM)",-0.0369,-0.0716,0.431,0.631,0.463,0.889,0.386,1,0.539,0.802,0.467,0.862,1,0.507,0.463,0.543
"COc1nnc2ccc(N3CCC(c4ccc(OCCN5CCN(C)C(=O)[C@H]5C)cc4)CC3)nn12 [AZD5153] + CCN(CCO)CCCOc1ccc2c(Nc3cc(CC(=O)Nc4cccc(F)c4)[nH]n3)ncnc2c1 [AZD2811] (first compound max 1 µM, 7x7, partner max 1 µM)",-0.0571,-0.106,0.544,0.691,0.545,0.895,0.587,0.961,0.565,0.696,0.462,0.915,0.952,0.548,0.552,0.658
"COc1nnc2ccc(N3CCC(c4ccc(OCCN5CCN(C)C(=O)[C@H]5C)cc4)CC3)nn12 [AZD5153] + C[C@@H]1COCCN1C2=NC(=NC(=C2)C3(CC3)[S@](=N)(=O)C)C4=C5C=CNC5=NC=C4 [AZD6738] (first compound max 1 µM, 7x7, partner max 10 µM)",-0.0452,-0.0626,0.569,0.744,0.789,0.966,0.763,1,0.572,0.689,0.634,0.965,0.943,0.61,0.705,0.925
"COc1nnc2ccc(N3CCC(c4ccc(OCCN5CCN(C)C(=O)[C@H]5C)cc4)CC3)nn12 [AZD5153] + Cc1c2c(nn1C)CSCc1cc(n(C)n1)CSc1cc(c3ccccc3c1)OCCCc1c(C(=O)O)n(C)c3c-2c(Cl)ccc13 [AZD5991] (first compound max 1 µM, 7x7, partner max 1 µM)",0.0022,-0.0146,0.914,0.835,0.587,0.961,0.593,1,0.531,0.715,0.6,0.98,1,0.5,0.436,0.653
"COc1nnc2ccc(N3CCC(c4ccc(OCCN5CCN(C)C(=O)[C@H]5C)cc4)CC3)nn12 [AZD5153] + Cn1cnc2c(F)c(Nc3ccc(Br)cc3Cl)c(C(=O)NOCCO)cc21 [Selumetinib] (first compound max 1 µM, 7x7, partner max 10 µM)",0.0236,0.0028,0.648,0.735,0.61,0.988,0.478,1,0.574,0.738,0.531,0.93,0.823,0.666,0.507,0.486
"NC1(C(=O)N[C@@H](CCO)c2ccc(Cl)cc2)CCN(c2ncnc3[nH]ccc23)CC1 [Capivasertib] + CC(=O)c1c(C)c2cnc(Nc3ccc(N4CCNCC4)cn3)nc2n(C2CCCC2)c1=O [Palbociclib] (first compound max 10 µM, 7x7, partner max 10 µM)",-0.0388,-0.048,0.596,0.236,0.277,0.468,0.607,0.517,0.54,0.56,0.474,0.44,0.623,0.433,0.501,0.458
"Cc1nc(Nc2ncc(C(=O)Nc3c(C)cccc3Cl)s2)cc(N2CCN(CCO)CC2)n1 [Dasatinib] + CC(=O)Nc1cccc(-n2c(=O)n(C3CC3)c(=O)c3c(Nc4ccc(I)cc4F)n(C)c(=O)c(C)c32)c1 [Trametinib] (first compound max 2 µM, 7x7, partner max 1 µM)",–,0.0746,0.904,–,0.483,1,0.221,0.861,0.667,0.663,0.575,0.638,0.76,0.645,0.611,0.344
"CS(=O)(=O)CCNCc1ccc(-c2ccc3ncnc(Nc4ccc(OCc5cccc(F)c5)c(Cl)c4)c3c2)o1 [Lapatinib] + Cn1cnc2c(F)c(Nc3ccc(Br)cc3Cl)c(C(=O)NOCCO)cc21 [Selumetinib] (first compound max 10 µM, 7x7, partner max 10 µM)",-0.0698,0.0665,0.933,0.55,–,0.644,–,0.661,–,0.432,–,0.531,–,0.402,–,0.501
"CS(=O)(=O)CCNCc1ccc(-c2ccc3ncnc(Nc4ccc(OCc5cccc(F)c5)c(Cl)c4)c3c2)o1 [Lapatinib] + NC1(c2ccc(-c3nc4ccn5c(=O)[nH]nc5c4cc3-c3ccccc3)cc2)CCC1 [MK-2206] (first compound max 10 µM, 7x7, partner max 10 µM)",0.0239,-0.014,0.935,0.751,–,0.904,–,0.778,–,0.81,0.835,0.944,–,0.927,–,0.636
"Cc1nc(-c2cn3c(n2)-c2ccc(-c4cnn(C(C)(C)C(N)=O)c4)cc2OCC3)n(C(C)C)n1 [Taselisib] + O=C(Nc1ccc2[nH]nc(-c3ccncc3)c2c1)[C@@H]1CCN(CC(=O)N2CCN(c3ccc(-c4ncccn4)cc3)CC2)C1 [SCH772984] (first compound max 10 µM, 7x7, partner max 5 µM)",-0.0373,0.0859,1,0.727,–,0.954,–,0.932,–,0.667,–,0.661,–,0.924,–,0.485
"CC1(C)CCC(CN2CCN(c3ccc(C(=O)NS(=O)(=O)c4ccc(NCC5CCOCC5)c([N+](=O)[O-])c4)c(Oc4cnc5[nH]ccc5c4)c3)CC2)=C(c2ccc(Cl)cc2)C1 [Venetoclax] + Cn1cnc2c(F)c(Nc3ccc(Br)cc3Cl)c(C(=O)NOCCO)cc21 [Selumetinib] (first compound max 1 µM, 7x7, partner max 3 µM)",-0.0929,–,0.407,0.445,0.133,0.868,0.138,0.994,0.447,0.735,0.286,–,0.735,0.203,0.222,0.221

# Source: the supplement of paper PMC11061612
